Hepatotoxicity data for 13 molecules are collected here from ChEMBL document CHEMBL1697731, “Cheminformatics analysis of assertions mined from literature that describe drug-induced liver injury in different species” (Chem Res Toxicol, 2010).

For data set [1], the system named is Hepatotoxicity. In words: Literature-mined compound from Fourches et al multi-species drug-induced liver injury (DILI) dataset, effect in humans. Particulars: human.
In data set [2] the test system is Hepatotoxicity. In words: Literature-mined compound from Fourches et al multi-species drug-induced liver injury (DILI) dataset, effect in non-rodents.
The test system of data set [3] is Hepatotoxicity. In words: Literature-mined compound from Fourches et al multi-species drug-induced liver injury (DILI) dataset, effect in rodents. Particulars: rodentia.

In the case of `CCCC(C)(COC(N)=O)COC(=O)NC(C)C` (centres undefined) [CARISOPRODOL], the Hepatotoxicity entry in the data set on Hepatotoxicity [1] is on record as “no drug-induced liver injury reported”; in the data set with Hepatotoxicity [2], “no drug-induced liver injury reported”; with Hepatotoxicity [3], “drug-induced liver injury reported”.

On to `CC(=O)N1CCN(c2ccc(OCC3COC(Cn4ccnc4)(c4ccc(Cl)cc4Cl)O3)cc2)CC1` (centres undefined) [KETOCONAZOLE], for which the Hepatotoxicity result with Hepatotoxicity [1], with Hepatotoxicity [2] and in the data set with Hepatotoxicity [3] was “drug-induced liver injury reported” throughout.

For the molecule `CC(=O)CC(c1ccc([N+](=O)[O-])cc1)c1c(O)c2ccccc2oc1=O` (centres undefined) [ACENOCOUMAROL], the Hepatotoxicity result in the data set on Hepatotoxicity [1] was “drug-induced liver injury reported”; in the data set with Hepatotoxicity [2], “no drug-induced liver injury reported”; with Hepatotoxicity [3], “no drug-induced liver injury reported”.

For the molecule `CC1(C)C2CCC1(CS(=O)(=O)[O-])C(=O)C2.O=C1N(Cc2ccccc2)C2C[S+]3CCCC3C2N1Cc1ccccc1` (centres undefined) [TRIMETHAPHAN CAMSYLATE], the values for the Hepatotoxicity entry in the data set on Hepatotoxicity [1], in the data set on Hepatotoxicity [2] and in the data set on Hepatotoxicity [3] were “no drug-induced liver injury reported”, “drug-induced liver injury reported” and “no drug-induced liver injury reported”, respectively.

Consider `CCCCCCCCc1ccc(CCC(N)(CO)CO)cc1` [FINGOLIMOD], for which the Hepatotoxicity result is given as “drug-induced liver injury reported” in the data set with Hepatotoxicity [1], “no drug-induced liver injury reported” with Hepatotoxicity [2] and “drug-induced liver injury reported” with Hepatotoxicity [3].

`CC(COc1ccccc1)NC(C)C(O)c1ccc(O)cc1` (centres undefined) [ISOXSUPRINE]: the results for the Hepatotoxicity entry with Hepatotoxicity [1], in the data set with Hepatotoxicity [2] and in the data set on Hepatotoxicity [3] were “no drug-induced liver injury reported”, “no drug-induced liver injury reported” and “drug-induced liver injury reported”, respectively.

As to HYALURONIC ACID, the Hepatotoxicity entry with Hepatotoxicity [1] is given as “drug-induced liver injury reported”; with Hepatotoxicity [2], “no drug-induced liver injury reported”; in the data set with Hepatotoxicity [3], “drug-induced liver injury reported”.

`CNC1(c2ccccc2Cl)CCCCC1=O` (centres undefined) [KETAMINE]: the Hepatotoxicity result is “no drug-induced liver injury reported” in the data set with Hepatotoxicity [1], “drug-induced liver injury reported” in the data set with Hepatotoxicity [2] and “drug-induced liver injury reported” with Hepatotoxicity [3].

Consider `CCO` [ALCOHOL], for which the Hepatotoxicity entry with Hepatotoxicity [1] (Liver), with Hepatotoxicity [2] (Liver) and with Hepatotoxicity [3] (Liver) was “drug-induced liver injury reported” throughout.

Consider `Cn1c(CCCC(=O)O)nc2cc(N(CCCl)CCCl)ccc21` [BENDAMUSTINE], for which the results for the Hepatotoxicity result in the data set with Hepatotoxicity [1], with Hepatotoxicity [2] and in the data set with Hepatotoxicity [3] were “drug-induced liver injury reported”, “no drug-induced liver injury reported” and “no drug-induced liver injury reported”, respectively.

In the case of `O=C(O)CSCC(=O)NC1CCSC1=O` (centres undefined) [ERDOSTEINE], the Hepatotoxicity entry in the data set with Hepatotoxicity [1] was “no drug-induced liver injury reported”; with Hepatotoxicity [2], “no drug-induced liver injury reported”; in the data set on Hepatotoxicity [3] it was “drug-induced liver injury reported”.

As for `NC(=O)c1ccccc1O` [SALICYLAMIDE], the Hepatotoxicity result is given as “drug-induced liver injury reported” in the data set on Hepatotoxicity [1], “no drug-induced liver injury reported” in the data set with Hepatotoxicity [2] and “drug-induced liver injury reported” with Hepatotoxicity [3].

As to `CC[C@H]1OC(=O)[C@H](C)[C@@H](O[C@H]2C[C@@](C)(OC)[C@@H](O)[C@H](C)O2)[C@H](C)[C@@H](O[C@@H]2O[C@H](C)C[C@H](N(C)C)[C@H]2O)[C@](C)(O)C[C@@H](C)C(=O)[C@H](C)[C@@H](O)[C@]1(C)O.O=C(O)[C@H](O)[C@@H](O)[C@H](O[C@@H]1O[C@H](CO)[C@H](O)[C@H](O)[C@H]1O)[C@H](O)CO` [ERYTHROMYCIN LACTOBIONATE], the Hepatotoxicity entry is given as “drug-induced liver injury reported” in the data set on Hepatotoxicity [1], “no drug-induced liver injury reported” with Hepatotoxicity [2] and “no drug-induced liver injury reported” with Hepatotoxicity [3].
